Assay results from patent publication US8309685B2 (Celgene Avilomics Research, Inc., priority 2007, dated 2012).
Like-named read-outs stand apart in the source and are kept apart here.

Experiments:
[1] = target: T1, wild type HCV NS3/4A 1b protease enzyme (Hepatitis C virus genotype 1b, UniProt P26663); assay: biochemical; assay type: biochemical
T1 construct: 10× stocks of NS3/4A protease enzyme from Bioenza (Mountain View, Calif.); purchased Bioenza (Mountain View, Calif.)
Method: (§1) HCV Protease FRET Assay for Wild Type and Mutated NS3/4A 1b Enzymes (IC50)
(§2) Protease reactions were started with the addition of 45 μL of the FRET substrate and monitored for 120 minutes at λex487/λem514 through Quad^4 monochromoters in a Synergy^4 plate reader from BioTek (Winooski, Vt.). At the conclusion of each assay, progress curves from each well were examined for linear reaction kinetics and fit statistics (R^2, absolute sum of squares).
(§3) The compound numbers correspond to the compound numbers in Table 3.

[2] = target: T2, D168A mutant of the HCV NS3/4A 1b protease enzyme (Hepatitis C virus genotype 1b, UniProt P26663, D1194A); assay: HCV Protease FRET Assay (IC50), D168A mutant; assay type: biochemical
T2 construct: 10× stocks of NS3/4A protease enzyme from Bioenza (Mountain View, Calif.); purchased Bioenza (Mountain View, Calif.)
Method: as §1, §2, §3

[3] = read-out: Inhibition, WT, WT enzyme, FRET assay
[4] = read-out: Inhibition, HCV D168A, D168A enzyme, FRET assay

Row | SMILES | IC50 [1, 3] [nM] | IC50 [2, 4] [nM] | IC50 [1] [nM] | IC50 [2] [nM]
1 | C=C[C@@H]1C[C@]1(NC(=O)[C@@H]1C[C@@H](Oc2cc(-c3ccccc3)nc3cc(OC)ccc23)CN1C(=O)CNC(=O)[C@@H](Cl)c1ccccc1)C(=O)NS(=O)(=O)c1ccccc1 (stereo in doubt) [Compound I-45, (2S,4R)-1-(2-((S,R)-2-chloro-2-phenylacetamido)acetyl)-4-(7-methoxy-2-phenylquinolin-4-yloxy)-N-((1R,2S)-1-(phenylsulfonylcarbamoyl)-2-vinylcyclopropyl)pyrrolidine-2-carboxamide] | 100 to 1000 | 1000 to 10000 |  | 
2 | C=C[C@@H]1C[C@]1(NC(=O)[C@@H]1C[C@@H](Oc2cc(-c3ccccc3)nc3cc(OC)ccc23)CN1C(=O)[C@H](CCNC(=O)C(C)Cl)NC(=O)OC(C)(C)C)C(=O)NS(=O)(=O)c1ccccc1 (stereo partly drawn) [Compound I-1, (2S)-2-[[(1,1-dimethylethoxy)carbonyl]amino]-4-(R,S-chloropropionyl)amino-butanoyl-(4R)-4-[(7-methoxy-2-phenyl-4-quinolinyl)oxy]-L-prolyl-1-amino-2-ethenyl-N-(phenylsulfonyl)-(1R,2S)-cyclopropanecarboxamide] | < 10 | 1000 to 10000 |  | 
3 | C=C[C@@H]1C[C@]1(NC(=O)[C@@H]1C[C@@H](Oc2cc(-c3ccccc3)nc3cc(OC)ccc23)CN1C(=O)[C@H](CC1CO1)NC(=O)OC(C)(C)C)C(=O)NS(=O)(=O)c1ccccc1 (stereo partly drawn) [Compound I-6, (2S)-2-[[(1,1-dimethylethoxy)carbonyl]amino]-3-oxiranepropanoyl-(4R)-4-[(7-methoxy-2-phenyl-4-quinolinyl)oxy]-L-prolyl-1-amino-2-ethenyl-N-(phenylsulfonyl)-(1R,2S)-cyclopropanecarboxamide] | < 10 | 100 to 1000 |  | 
4 | C=C[C@@H]1C[C@]1(NC(=O)[C@@H]1C[C@@H](Oc2cc(-c3ccccc3)nc3cc(OC)ccc23)CN1C(=O)[C@H](CNC(=O)C1(C#N)CC1)NC(=O)OC(C)(C)C)C(=O)NS(=O)(=O)c1ccccc1 [Compound I-11, N-[(1,1-dimethylethoxy)carbonyl]-3-[(1-cyano-cyclopropylcarboxyl)amino]-L-alanyl-(4R)-4-[(7-methoxy-2-phenyl-4-quinolinyl)oxy]-L-prolyl-1-amino-2-ethenyl-N-(phenylsulfonyl)-(1R,2S)-cyclopropanecarboxamide] | < 10 | 100 to 1000 |  | 
5 | C=C[C@@H]1C[C@]1(NC(=O)[C@@H]1C[C@@H](Oc2cc(-c3ccccc3)nc3cc(OC)ccc23)CN1C(=O)[C@H](CNC(=O)[C@@H](C)Cl)NC(=O)OC(C)(C)C)C(=O)NS(=O)(=O)c1ccccc1 [Compound I-13, N-[(1,1-dimethylethoxy)carbonyl]-3-[R-(chloropropionyl)amino]-L-alanyl-(4R)-4-[(7-methoxy-2-phenyl-4-quinolinyl)oxy]-L-prolyl-1-amino-2-ethenyl-N-(phenylsulfonyl)-(1R,2S)-cyclopropanecarboxamide] | < 10 | 100 to 1000 |  | 
6 | C=C[C@@H]1C[C@]1(NC(=O)[C@@H]1C[C@@H](Oc2cc(-c3ccccc3)nc3cc(OC)ccc23)CN1C(=O)[C@H](CNC(=O)[C@H](C)Cl)NC(=O)OC(C)(C)C)C(=O)NS(=O)(=O)c1ccccc1 [Compound I-21, tert-butyl(S)-3-((S)-2-chloropropanamido)-1-((2S,4R)-4-(7-methoxy-2-phenylquinolin-4-yloxy)-2-((1R,2S)-1-(phenylsulfonylcarbamoyl)-2-vinylcyclopropylcarbamoyl)pyrrolidin-1-yl)-1-oxopropan-2-ylcarbamate] | < 10 | 100 to 1000 |  | 
7 | C=C[C@@H]1C[C@]1(NC(=O)[C@@H]1C[C@@H](Oc2cc(-c3ccccc3)nc3cc(OC)ccc23)CN1C(=O)C1(NC(=O)OC(C)(C)C)CCNCC1)C(=O)NS(=O)(=O)c1ccccc1 [Compound I-24, tert-butyl-4-((2S,4R)-4-(7-methoxy-2-phenylquinolin-4-yloxy)-2-((1R,2S)-1-(phenylsulfonylcarbamoyl)-2-vinylcyclopropylcarbamoyl)pyrrolidine-1-carbonyl)piperidin-4-ylcarbamate] | 100 to 1000 | 1000 to 10000 |  | 
8 | C=CC(=O)NC[C@H](NC(=O)CCCCCNC(=O)CCCC[C@@H]1SC[C@@H]2NC(=O)N[C@@H]21)C(=O)N1C[C@H](Oc2cc(-c3ccccc3)nc3cc(OC)ccc23)C[C@H]1C(=O)N[C@]1(C(=O)NS(=O)(=O)c2ccccc2)C[C@H]1C=C [Compound I-31, (2S,4R)-1-((S)-3-acrylamido-2-(6-(5-((3aS,4S,6aR)-2-oxohexahydro-1H-thieno[3,4-d]imidazol-4-yl)pentanamido)hexanamido)propanoyl)-4-(7-methoxy-2-phenylquinolin-4-yloxy)-N-((1R,2S)-1-(phenylsulfonylcarbamoyl)-2-vinylcyclopropyl)pyrrolidine-2-carboxamide] | < 10 | 10 to 100 |  | 
9 | C=CC(=O)N[C@@H](C)C(=O)N1C[C@H](Oc2cc(-c3ccccc3)nc3cc(OC)ccc23)C[C@H]1C(=O)N[C@]1(C(=O)NS(=O)(=O)c2ccccc2)C[C@H]1C=C [Compound I-34, (2S,4R)-1-((S)-2-acrylamidopropanoyl)-4-(7-methoxy-2-phenylquinolin-4-yloxy)-N-((1R,2S)-1-(phenylsulfonylcarbamoyl)-2-vinylcyclopropyl)pyrrolidine-2-carboxamide] | 10 to 100 | 1000 to 10000 |  | 
10 | C=CC(=O)N(C)CC(=O)N1C[C@H](Oc2cc(-c3ccccc3)nc3cc(OC)ccc23)C[C@H]1C(=O)N[C@]1(C(=O)NS(=O)(=O)C2CC2)C[C@H]1C=C [Compound I-37, (2S,4R)—N-((1R,2S)-1-(cyclopropylsulfonylcarbamoyl)-2-vinylcyclopropyl)-4-(7-methoxy-2-phenylquinolin-4-yloxy)-1-(2-(N-methylacrylamido)acetyl)pyrrolidine-2-carboxamide] | 10 to 100 | 1000 to 10000 |  | 
11 | C=C[C@@H]1C[C@]1(NC(=O)[C@@H]1C[C@@H](Oc2cc(-c3ccccc3)nc3cc(OC)ccc23)CN1C(=O)CNC(=O)OC(C)(C)C)C(=O)NS(=O)(=O)C1CC1 [Compound I-38, tert-butyl-2-((2S,4R)-2-((1R,2S)-1-(cyclopropylsulfonylcarbamoyl)-2-vinylcyclopropylcarbamoyl)-4-(7-methoxy-2-phenylquinolin-4-yloxy)pyrrolidin-1-yl)-2-oxoethylcarbamate] | < 10 | 100 to 1000 |  | 
12 | C=CC(=O)OC(C)(C)[C@H](NC(=O)OC(C)(C)C)C(=O)N1CC(Oc2cc(-c3ccccc3)nc3cc(OC)ccc23)C[C@H]1C(=O)N[C@]1(C(=O)NS(=O)(=O)C2CC2)C[C@H]1C=C (some centres unmarked) [Compound I-40] | 10 to 100 | < 10 |  | 
13 | C=C[C@@H]1C[C@]1(NC(=O)[C@@H]1C[C@@H](Oc2cc(-c3ccccc3)nc3cc(OC)ccc23)CN1C(=O)CNC(=O)C#CC)C(=O)NS(=O)(=O)c1ccccc1 [Compound I-43, (2S,4R)-1-(2-but-2-ynamidoacetyl)-4-(7-methoxy-2-phenylquinolin-4-yloxy)-N-((1R,2S)-1-(phenylsulfonylcarbamoyl)-2-vinylcyclopropyl)pyrrolidine-2-carboxamide] | 100 to 1000 | 1000 to 10000 |  | 
14 | C=C[C@@H]1C[C@]1(NC(=O)[C@@H]1C[C@@H](Oc2cc(-c3ccccc3)nc3cc(OC)ccc23)CN1C(=O)CNC(=O)C(=C)C)C(=O)NS(=O)(=O)c1ccccc1 [Compound I-44, (2S,4R)-1-(2-methacrylamidoacetyl)-4-(7-methoxy-2-phenylquinolin-4-yloxy)-N-((1R,2S)-1-(phenylsulfonylcarbamoyl)-2-vinylcyclopropyl)pyrrolidine-2-carboxamide] | 10 to 100 | 1000 to 10000 |  | 
15 | C=CC(=O)N1C[C@H](Oc2cc(-c3ccccc3)nc3cc(OC)ccc23)C[C@H]1C(=O)N[C@]1(C(=O)NS(=O)(=O)C2CC2)C[C@H]1C=C [Compound I-49, (2S,4R)-1-acryloyl-N-((1R,2S)-1-(cyclopropylsulfonylcarbamoyl)-2-vinylcyclopropyl)-4-(7-methoxy-2-phenylquinolin-4-yloxy)pyrrolidine-2-carboxamide] | 10 to 100 | 100 to 1000 |  | 
16 | C=C[C@@H]1C[C@]1(NC(=O)[C@@H]1C[C@@H](Oc2cc(-c3ccccc3)nc3cc(OC)ccc23)CN1C(=O)CNC(=O)CC)C(=O)NS(=O)(=O)c1ccccc1 [I^R-27, (2S,4R)-4-(7-methoxy-2-phenylquinolin-4-yloxy)-N-((1R,2S)-1-(phenylsulfonylcarbamoyl)-2-vinylcyclopropyl)-1-(2-propionamidoacetyl)pyrrolidine-2-carboxamide] |  |  | 100 to 1000 | 1000 to 10000
